Results reported in US11140896B2, “Two components disinfecting composition containing peracetic acid and chelating agent” (ECOLAB USA INC., priority 2014, dated 2021).

Test: Screening of different concentrations of the chelating agent GLDA (peracetic acid concentration over storage)
Type: physicochemical

O=C([O-])CC[C@@H](C(=O)[O-])N(CC(=O)[O-])CC(=O)[O-].[Na+].[Na+].[Na+].[Na+] [GLDA, N,N-bis(carboxymethyl)-L-glutamic acid tetrasodium salt]
peracetic acid concentration of the aqueous disinfectant solution (0.05 wt.-% GLDA in component (B), day 0, 23° C.): 2314 ppm | peracetic acid concentration of the aqueous disinfectant solution (0.05 wt.-% GLDA in component (B), day 1, 23° C.): 2220 ppm | peracetic acid concentration of the aqueous disinfectant solution (0.05 wt.-% GLDA in component (B), day 4, 23° C.): 1847 ppm | peracetic acid concentration of the aqueous disinfectant solution (0.05 wt.-% GLDA in component (B), day 6, 23° C.): 1753 ppm | peracetic acid concentration of the aqueous disinfectant solution (0.05 wt.-% GLDA in component (B), day 7, 23° C.): 1653 ppm | peracetic acid concentration of the aqueous disinfectant solution (0.05 wt.-% GLDA in component (B), day 8, 23° C.): 1563 ppm | peracetic acid concentration of the aqueous disinfectant solution (0.05 wt.-% GLDA in component (B), day 9, 23° C.): 1466 ppm | peracetic acid concentration of the aqueous disinfectant solution (0.05 wt.-% GLDA in component (B), day 15, 23° C.): 829 ppm | peracetic acid concentration of the aqueous disinfectant solution (0.1 wt.-% GLDA in component (B), day 0, 23° C.): 2346 ppm | peracetic acid concentration of the aqueous disinfectant solution (0.1 wt.-% GLDA in component (B), day 1, 23° C.): 2202 ppm | peracetic acid concentration of the aqueous disinfectant solution (0.1 wt.-% GLDA in component (B), day 4, 23° C.): 1856 ppm | peracetic acid concentration of the aqueous disinfectant solution (0.1 wt.-% GLDA in component (B), day 6, 23° C.): 1793 ppm | peracetic acid concentration of the aqueous disinfectant solution (0.1 wt.-% GLDA in component (B), day 7, 23° C.): 1682 ppm | peracetic acid concentration of the aqueous disinfectant solution (0.1 wt.-% GLDA in component (B), day 8, 23° C.): 1636 ppm | peracetic acid concentration of the aqueous disinfectant solution (0.1 wt.-% GLDA in component (B), day 9, 23° C.): 1566 ppm | peracetic acid concentration of the aqueous disinfectant solution (0.1 wt.-% GLDA in component (B), day 15, 23° C.): 1075 ppm | stabilisation of peracetic acid, comparison of GLDA concentrations (0.1 wt.-% GLDA in the stabilizer component (B)): best stabilisation | peracetic acid concentration of the aqueous disinfectant solution (0.5 wt.-% GLDA in component (B), day 0, 23° C.): 2408 ppm | peracetic acid concentration of the aqueous disinfectant solution (0.5 wt.-% GLDA in component (B), day 1, 23° C.): 2113 ppm | peracetic acid concentration of the aqueous disinfectant solution (0.5 wt.-% GLDA in component (B), day 4, 23° C.): 1821 ppm | peracetic acid concentration of the aqueous disinfectant solution (0.5 wt.-% GLDA in component (B), day 6, 23° C.): 1718 ppm | peracetic acid concentration of the aqueous disinfectant solution (0.5 wt.-% GLDA in component (B), day 7, 23° C.): 1682 ppm | peracetic acid concentration of the aqueous disinfectant solution (0.5 wt.-% GLDA in component (B), day 8, 23° C.): 1625 ppm | peracetic acid concentration of the aqueous disinfectant solution (0.5 wt.-% GLDA in component (B), day 9, 23° C.): 1512 ppm | peracetic acid concentration of the aqueous disinfectant solution (0.5 wt.-% GLDA in component (B), day 15, 23° C.): 1016 ppm | shelf life of the aqueous disinfectant use solution (component (B) comprised 0.05 wt.-%, 0.1 wt.-% or 0.5 wt.-% GLDA): about 14 days
